The values that follow come from patent publication US11787816B2, “Chlorin compound, and preparation and use thereof” (Southwest Jiaotong University, priority 2021, dated 2023).

Where two headings read alike, the source gives them in different places.

Data set [1] is described as follows: Photosensitizer-mediated PDT, in vitro proliferation (MTT), Hela. The settings on record: human, Hela cells, Hela, no light, read-out: cell viability (%). The format is cell-based, human. On the procedure: (§1) Several kinds of tumor cells (human cervical cancer Hela cells, human hepatocellular carcinoma huh-7 cells and murine mammary carcinoma 4T1 cells) cultured in vitro from a variety of tissues were taken as cell models, so as to investigate the photodynamic effects mediated by different doses of CEFN, CEFO, Ce6 and HPPH on the three different tumor cells (n=3). The specific experimental procedures were carried out as follows.
(§2) Cells in the logarithmic growth phase were harvested and seeded in a 24-well plate. After growing to a confluence of 70-80%, the cells were randomly divided into a control group (free of drug and light irradiation), a drug group and a photodynamic group. The CEFN, CEFO, Ce6 and HPPH were added respectively in dark, and for each drug, four final concentrations 1, 2, 5, and 10 μg/mL were set with 3 replicates for each group. After the co-incubation, the groups were treated individually. Regarding the photodynamic group, the light irradiation was performed at a wavelength of 660 nm and three different light intensities, i.e., 2, 4 and 8 J/cm^2. After that, each group was digested, and were inoculated into a 96-well plate at 100 μL per well with 4 replicates for each treatment. 24 hours later, the 96-well plate was subjected to MTT assay as follows. Each well was added with 20 μL of MTT (3-4,5-dimethylthiazol-2,5-diphenyltetrazolium bromide) solution in the dark and incubated for 4 hours. The supernatant was discarded, and the residue was dissolved with 150 μL of dimethyl sulfoxide for 15 min. After that, the 96-well plate was measured by a microplate reader for the absorbance (OD value). The relative cell viability was calculated as follows: relative cell viability=OD value of experimental group/OD value of control group*100%.

Data set [2] has as its system human cervical cancer Hela cells. The data set is described as above. Format: cell-based. The method, then: as §1, §2
Data set [3] in a line: Photosensitizer-mediated PDT, in vitro proliferation (MTT), 4T1. The format is cell-based, murine. Particulars: mouse, 4T1 cells, no light. The method, then: as §1, §2
(§3) In this experiment, photodynamic effect mediated by the compounds (except CEFO and CEFN) in different Examples of this disclosure on the murine mammary carcinoma 4T1 cells was investigated. The experimental procedures are carried out as follows. Cells in the logarithmic growth phase were harvested and seeded in a 24-well plate. After growing to a confluence of 70-80%, the cells were randomly divided into multiple photodynamic groups and multiple no-light control groups. The compounds (as shown in Table 8a) with a final concentration of 10 μg/mL were added to each group respectively in dark with 3 replicates for each group, so as to co-incubate the cells with the drug. Regarding the multiple photodynamic groups, the light irradiation was performed at a wavelength of 660 nm and the light intensity of 8 J/cm^2. After that, each group was digested, and were inoculated into a 96-well plate at 100 μL per well with 4 replicates for light treatment and no light treatment. 24 hours later, the 96-well plate was measured by MTT assay as follows. Each well was added with 20 μL of MTT (3-4,5-dimethylthiazol-2,5-diphenyltetrazolium bromide) solution in the dark and incubated for 4 hours. The supernatant was discarded, and the residue was dissolved with 150 μL of dimethyl sulfoxide for 15 min. After that, the 96-well plate was measured by a microplate reader for the absorbance (OD value). The relative cell viability of the murine mammary carcinoma 4T1 cells was calculated as follows according to the measured absorbance (OD value) in each group: relative cell viability=OD value of experimental group/OD value of control group*100%.

Data set [4] relates to murine mammary carcinoma 4T1 cells. The data set is described as above. Particulars: for viability at 10 µg/mL / cell viability (%), +8 J/cm^2 / cell viability (%), No light: 10 μg/mL. The format is cell-based. On the procedure:
as §1, §2, §3

A short description of data set [5]: Photosensitizer-mediated PDT, in vitro proliferation (MTT), huh-7. The settings on record: human, huh-7 cells, no light, read-out: cell viability (%). The format is cell-based, human. On the procedure: as §1, §2
Data set [6] relates to human hepatocellular carcinoma huh-7 cells. Described as above. The format is cell-based. The settings on record: Homo sapiens, light or radiation study, 660 nm, 8 J/cm^2, read-out: cell viability (%). On the procedure: as §1, §2
Data set [7] concerns murine mammary carcinoma 4T1 cells. The data set is described as follows: Antitumor activity as sonosensitizers (SDT) on tumor-bearing mice. Format: in vivo. On the procedure:
The murine mammary carcinoma cells (4T1 line) were subjected to adherent culture. After growing to a confluence of 70%-80%, the cells in the culture flask were routinely digested, centrifuged and counted, and then resuspended with 0.85% normal saline to a density of 1×10^7 cells/mL. The cell suspension was injected into the left lateral middle axillary subcutaneous part of […] Bal b/c healthy mice (female, aged 6-8 weeks) at 0.1 mL/mouse. When the tumor diameter, which was observed every other day, reached 0.6-0.8 cm, the mice with well-growing tumors and no ulcers on the epidermis were selected for grouped treatment.
Mice with similar body weight and uniform tumor size are selected and randomly divided into 6 groups with 6 mice for each group. 48 h after inoculation, the mice were subjected to drug administration separately from the tail vein by group.
[…] 6 h after drug administration, each group of mice was anesthetized by intraperitoneal injection with 0.2 mL of 1% pentobarbital sodium. Then the mice were fixed to allow the tumor growth site exposed. The SDT group was treated using an ultrasonic therapeutic apparatus at an impulse waveform of 1.0 MHz and power of 3.0 W/cm^2 for 3 min. 7 days after SDT, the animals were sacrificed. The tumor was stripped and weighed, and the body weight was recorded.

[8] abbreviates: 5 mg/kg tail vein, SDT 1.0 MHz, 3.0 W/cm^2, 3 min, 6 h after dosing, 7 days after SDT.
Where [9] appears, read: 5 mg/kg, SDT, mice, in g (unit assumed).
Where [10] appears, read: Table 8a, read-out: cell viability (%), No light.
The mark [11] stands for this setting: Mus musculus, light or radiation study, Table 8a, 660 nm, 8 J/cm^2, read-out: cell viability (%), +8 J/cm^2.

Take `C=Cc1c(C)c2cc3nc(c(CC(=O)O)c4[nH]c(cc5nc(cc1[nH]2)C(C)=C5CC)c(C)c4C(=O)O)[C@@H](CCC(=O)O)[C@@H]3C` [Ce6, reference compound]: the viability at 24 h, 1 μg/mL in data set [1] (1 μg/mL) worked out at 92 ± 3%; in data set [3] (1 μg/mL, read-out: cell viability (%)), 91 ± 2%; in data set [5] (1 μg/mL) it was 96 ± 1%. The viability at 24 h, 2 μg/mL in data set [1] (2 μg/mL) turned out to be 89 ± 2%; in data set [3] (2 μg/mL, read-out: cell viability (%)), 90 ± 3%; in data set [5] (2 μg/mL), 94 ± 2%. The viability at 24 h, 5 μg/mL in data set [1] (5 μg/mL) is 86 ± 4%; in data set [3] (5 μg/mL, read-out: cell viability (%)) it was 86 ± 4%; in data set [5] (5 μg/mL), 90 ± 2%. Moreover, the viability at 24 h, 10 μg/mL in data set [1] (10 μg/mL) came to 83 ± 3%; in data set [3] (read-out: cell viability (%)), 85 ± 4%; in data set [5] (10 μg/mL), 87 ± 2%. In addition, the viability at 1 µg/mL in data set [2] (Homo sapiens, light or radiation study, Hela, 1 μg/mL, 660 nm, 8 J/cm^2, read-out: cell viability (%)) was 86 ± 3%; in data set [4] (Mus musculus, light or radiation study, 1 μg/mL, 660 nm, 8 J/cm^2, read-out: cell viability (%)), 88 ± 2%; in data set [6] (1 μg/mL), 42 ± 3%. The viability at 2 µg/mL in data set [2] (Homo sapiens, light or radiation study, Hela, 2 μg/mL, 660 nm, 8 J/cm^2, read-out: cell viability (%)) was 76 ± 3%; in data set [4] (Mus musculus, light or radiation study, 2 μg/mL, 660 nm, 8 J/cm^2, read-out: cell viability (%)), 79 ± 3%; in data set [6] (2 μg/mL), 37 ± 3%. The viability at 5 µg/mL in data set [2] (Homo sapiens, light or radiation study, Hela, 5 μg/mL, 660 nm, 8 J/cm^2, read-out: cell viability (%)) came out at 38 ± 2%; in data set [4] (Mus musculus, light or radiation study, 5 μg/mL, 660 nm, 8 J/cm^2, read-out: cell viability (%)) it was 54 ± 3%; in data set [6] (5 μg/mL), 37 ± 2%. Further, the viability at 10 µg/mL in data set [2] (Homo sapiens, light or radiation study, Hela, 10 μg/mL, 660 nm, 8 J/cm^2, read-out: cell viability (%)) was 21 ± 1%; in data set [4] (Mus musculus, light or radiation study, 660 nm, 8 J/cm^2, read-out: cell viability (%)), 36 ± 1%; in data set [6] (10 μg/mL) it was 32 ± 3%. The “toxicity to the cells when the drug is used alone without photodynamic treatment” value in data set [2] (summary statement for Hela, huh-7 and 4T1 cells, no light) is recorded as “toxic to the cells”. The “Inhibitory rate (average ± SD, %)” value in data set [7] (setting [8]) is reported as 53.3 ± 2.8%. Moreover, the “Tumor weight (average ± SD, g)” value in data set [7] (setting [8]) was 0.080 ± 0.005 g. The “Body weight At the beginning” value in data set [7] (setting [9]) was 20.5 ± 0.4. In data set [7] (setting [9]), the “Body weight At the end” value is reported as 21.4 ± 0.5.
Consider `CCCCCCOCc1c(C)c2cc3nc(c(C)c4[nH]c(cc5nc(cc1[nH]2)C(C)=C5CC)c(C)c4C(=O)O)C(CCC(=O)O)C3C` (centres unmarked) [Example 1, 3-hexyloxymethyl-3-devinyl-chlorin e4], for which, in data set [4] (Table 8a, 660 nm), the “cell viability (%), +8 J/cm^2” value was 2 ± 5%. In addition, the “cell viability (%), No light” value in data set [4] (Table 8a) is 103 ± 1%.
In the same order, the values of `CCCCCCCCCCCOCc1c(C)c2cc3nc(c(C)c4[nH]c(cc5nc(cc1[nH]2)C(C)=C5CC)c(C)c4C(=O)O)[C@@H](CCC(=O)O)[C@@H]3C` [Example 6] are 4 ± 3% and 102 ± 2%.
For `CCCCCCNCc1c(C)c2cc3nc(c(C)c4[nH]c(cc5nc(cc1[nH]2)C(C)=C5CC)c(C)c4C(=O)O)[C@@H](CCC(=O)O)[C@@H]3C` [Example 16, 3-n-hexylaminomethyl-3-devinyl-chlorin e4], the “cell viability (%), +8 J/cm^2” value in data set [4] (Table 8a, 660 nm) is 7 ± 5%. Also, the “cell viability (%), No light” value in data set [4] (Table 8a) was 103 ± 3%.
On to `CCCCCCCCCCCCNCc1c(C)c2cc3nc(c(C)c4[nH]c(cc5nc(cc1[nH]2)C(C)=C5CC)c(C)c4C(=O)O)[C@@H](CCC(=O)O)[C@@H]3C` [Example 20], for which, in data set [3] (setting [10]), the viability at 24 h, 10 μg/mL worked out at 104 ± 1%. In data set [4] (setting [11]), the viability at 10 µg/mL was determined as 6 ± 3%.
Turning to `CCCCCCCCCCCNCc1c(C)c2cc3nc(c(C)c4[nH]c(cc5nc(cc1[nH]2)C(C)=C5CC)c(C)c4C(=O)O)[C@@H](CCC(=O)O)[C@@H]3C` [Example 21], the viability at 24 h, 10 μg/mL in data set [3] (setting [10]) stood at 101 ± 1%. Besides, in data set [4] (setting [11]), the viability at 10 µg/mL was determined as 9 ± 2%.
In the same order, the values of `CCCCCCCCCCNCc1c(C)c2cc3nc(c(C)c4[nH]c(cc5nc(cc1[nH]2)C(C)=C5CC)c(C)c4C(=O)O)[C@@H](CCC(=O)O)[C@@H]3C` [Example 22] are 99 ± 2% and 10 ± 4%.
For `CCCCCCCCCNCc1c(C)c2cc3nc(c(C)c4[nH]c(cc5nc(cc1[nH]2)C(C)=C5CC)c(C)c4C(=O)O)[C@@H](CCC(=O)O)[C@@H]3C` [Example 23] the same measures were 102 ± 2% and 8 ± 5%.
For `CCCCCCCCNCc1c(C)c2cc3nc(c(C)c4[nH]c(cc5nc(cc1[nH]2)C(C)=C5CC)c(C)c4C(=O)O)[C@@H](CCC(=O)O)[C@@H]3C` [Example 24] the same measures were 100 ± 2% and 9 ± 5%.
Consider `CCCCCCCNCc1c(C)c2cc3nc(c(C)c4[nH]c(cc5nc(cc1[nH]2)C(C)=C5CC)c(C)c4C(=O)O)[C@@H](CCC(=O)O)[C@@H]3C` [Example 25], for which the viability at 24 h, 10 μg/mL in data set [3] (setting [10]) was found to be 100 ± 2%. Further, the viability at 10 µg/mL in data set [4] (setting [11]) worked out at 5 ± 3%.
In the same order, the values of `CCCCCNCc1c(C)c2cc3nc(c(C)c4[nH]c(cc5nc(cc1[nH]2)C(C)=C5CC)c(C)c4C(=O)O)[C@@H](CCC(=O)O)[C@@H]3C` [Example 26] are 102 ± 1% and 6 ± 5%.
In the same order, the values of `CCCCNCc1c(C)c2cc3nc(c(C)c4[nH]c(cc5nc(cc1[nH]2)C(C)=C5CC)c(C)c4C(=O)O)[C@@H](CCC(=O)O)[C@@H]3C` [Example 27] are 103 ± 3% and 6 ± 2%.
In the same order, the values of `CCCNCc1c(C)c2cc3nc(c(C)c4[nH]c(cc5nc(cc1[nH]2)C(C)=C5CC)c(C)c4C(=O)O)[C@@H](CCC(=O)O)[C@@H]3C` [Example 28] are 104 ± 1% and 7 ± 4%.
